# Laboratory results as given in publication PMC9967013, “A Theranostic Small-Molecule Prodrug Conjugate for Neuroendocrine Prostate Cancer” (Pharmaceutics, 2023).
# Like-named read-outs stand apart in the source and are kept apart here.
# How the values were obtained:
# [1] = biological target: T1, human cathepsin B (Homo sapiens, UniProt P07858); test: In vitro cathepsin-B-mediated release assay; type: in vitro ADME; settings: 37 °C, 1 h
# T1 construct: purchased Sino Biological Inc
# Experimental: A comparative cathepsin-B-mediated release assay was performed with compound 13 in the presence vs. absence of human cathepsin B (Sino Biological Inc., Chesterbrook, PA, USA). Briefly, compound 13 (150 µg) was dissolved in 60 µL of 100 mM citrate buffer (pH 5.5), followed by adding 300 µg of cysteine. Then, 20 µg of human cathepsin B in 40 µL of 100 mM citrate buffer was added to the mixture and incubated at 37 °C for 1 h. At the end of the incubation, the solution (20 µL) was sampled for HPLC and LC–MS analysis. Controls of this assay included compound 13 without being exposed to cathepsin B, as well as cathepsin B itself processed under the same conditions.
# [2] = system: PC3 cells; test: Cell viability assay (MTT); type: cell-based, human; settings: OD 570 nm, read-out: EC50 (cytotoxicity)
# Experimental: PC3 cells (3000–5000 cells/well) were seeded onto a 96-well plate. After one day, freshly prepared RPMI media containing different concentrations (0, 1, 5, 10 µM; n = 5) of FTY720 (Selleckchem, Houston, TX, USA) or compound 10 (0, 1, 3, 15, 30 µM; n = 5) were added to the cells, and the mixtures were incubated for 48 or 72 h. The relative number of viable cells was determined by an assay using 3-(4,5-dimethylthiazol-2-yl) -2,5-diphenyltetrazolium bromide (MTT) (Sigma-Aldrich, Saint-Louis, MO, USA), according to the manufacturer’s instructions, on a microplate reader at OD 570 nm. The experiment was repeated in triplicate, and data were represented as the mean ± standard deviation (s.d).
# [3] = system: SSTR2^high AR42J and SSTR2^low PC3-Flu cells; test: SSTR2-selective cell uptake assay; type: cell-based; settings: 1 h incubation at r.t., binding buffer (20 mM tris, 150 mM NaCl, pH 7.4), ~7.1 × 10^5 CPM, gamma counting, uptake in SSTR2^low cells set at 1, n = 3
# [4] = system: SSTR2^high AR42J cells; test: Internalization assay; type: cell-based; settings: after 60 min, ~5 × 10^5 CPM, acid strip (glycine pH 3.0), gamma counting, n = 3
# [5] = system: SSTR2^low PC3_sgPTP1B xenografts; test: Small animal PET/CT imaging, tumor uptake in SSTR2^low xenograft; settings: same mice, i.v. 3–4.4 MBq, 60-min dynamic PET
# [6] = system: SSTR2^high PC3_VC xenografts; test: Small animal PET/CT imaging, tumor uptake in SSTR2^high xenograft; settings: same mice, i.v. 3–4.4 MBq, 60-min dynamic PET
compound,measurement,setting,value
DOTA-PEG3-TZ(PEG4-Octr)-PEG2-Trz-PEG3-Val-Cit-pABOC-FTY720 (disulfide) [Compound 13],cathepsin-B-mediated release of FTY720,"[1]; 150 µg compound, 20 µg human cathepsin B, 100 mM citrate buffer pH 5.5, cysteine, HPLC and LC-MS read-out",cathepsin-B-mediated release of FTY720 was further confirmed
same,release of FTY720 in the absence of cathepsin B (control),"[1]; same conditions without cathepsin B: 100 mM citrate buffer pH 5.5, cysteine, LC-MS read-out (FTY720 peak 366.0488 [M + 2H2O + Na]+)",the peak of 366.0488 was absent
"CCCCCCCCc1ccc(CCC(CO)(CO)NC(=O)OCc2ccc(NC(=O)[C@H](CCCNC(N)=O)NC(=O)[C@@H](NC(=O)CCOCCOCCOCCN=[N+]=[N-])C(C)C)cc2)cc1 [Compound 10, Val-Cit-pABOC-FTY720]",EC50,[2]; 48 h incubation,> 15 µM
same,EC50,[2]; 72 h incubation,> 15 µM
[^64Cu]Cu-DOTA-PEG3-TZ(PEG4-Octr)-PEG2-Trz-PEG3-Val-Cit-pABOC-FTY720 (disulfide),"normalized uptake, accumulation in SSTR2^high AR42J cells relative to SSTR2^low PC3-Flu cells",[3],six-fold higher
same,internalized percentage (Internalized/Total Bound%),[4],approximately 40%
"CCCCCCCCc1ccc(CCC(N)(CO)CO)cc1 [FTY720, fingolimod, reference compound]",EC50,"[2]; Homo sapiens, PC-3, 48 h incubation",~5 µM
same,EC50,"[2]; Homo sapiens, PC-3, 72 h incubation",~5 µM
O=C([O-])CN(CCN(CC(=O)[O-])Cc1cc(CCC(=O)NCCCCCC(=O)NCCCC[C@H](NC(=O)N[C@@H](CCC(=O)O)C(=O)O)C(=O)O)ccc1[O-])Cc1cc(CCC(=O)O)ccc1[O-].[68Ga+3].[OH3+] [[^68Ga]Ga-PSMA-11],tumor uptake in SSTR2^low PC3_sgPTP1B tumors (in words),[5],low uptake
same,tumor uptake in SSTR2^high PC3-VC tumors (in words),[6],low uptake
